Assay results as given in US6500821B1, “4-amino-1-aryl-1,5-dihydropyrrol-2-ones and process for making” (Arzneimittelwerk Dresden GmbH, priority 1999, dated 2002).

Key:
maximal electroshock = assay: Anticonvulsive action, maximal electroshock (MES), mouse i.p.; format: in vivo; conditions: for responders at 100 mg/kg / responders at 300 mg/kg: ip, read-out: Action, % of the protected animals
Method: (§1) Compounds according to the present invention were tested in vivo for their anticonvulsive action as shown in Table 1 in mice by i.p. administration, or in rats administered orally according to the internationally customary standard (Pharmac. Weekblad, Sc.Ed. 14 132 (1992) and Antiepileptic Drugs, Third Ed., Raven Press, New York 1989). [table]

s.c. pentetrazole = assay: Anticonvulsive action, s.c. pentetrazole (PTZ), mouse i.p.; format: in vivo; conditions: for responders at 300 mg/kg / responders at 100 mg/kg: ip, read-out: Action, % of the protected animals
Method: as §1

[1] = Octanol/water partition coefficient; format: physicochemical; conditions: for logP: read-out: log P (octanol/water partition coefficient)
Vogel Conflict Test = assay: Vogel Conflict Test; format: in vivo, rat; conditions: for dose from which an anxiolytic action was detected / equally effective dose / Changed number of impulses to the control in %: rat; for dose from which an anxiolytic action was detected / equally effective dose: p.o.
From the text: In this model, continuous access to drinking water is withheld from rats for a certain time. After this period, free access is given to drinking water, but is coupled with a mild electrical stimulation. The conflict for the animals is between accepting the electrical stimulation or going without a drink.
The reactions to a conflict situation of this type are similar to the secondary phenomena of anxiety in man. The resulting avoidance reactions can be suppressed by anxiolytic substances. As a measure of the anxiolytic action, the number of tolerated current pulses of the animals treated with the test substance is assessed in comparison to the vehicle-treated control group.

| Compound | responders at 100 mg/kg (maximal electroshock; dose 100 mg/kg) [%] | logP [1] | responders at 300 mg/kg (maximal electroshock; dose 300 mg/kg) [%] | melting point [°C] | responders at 100 mg/kg (s.c. pentetrazole; dose 100 mg/kg) [%] | other results |
| --- | --- | --- | --- | --- | --- | --- |
| Cc1cccc(N2CC(N3CCOCC3)=CC2=O)c1 [Compound 2, 1-(3-methylphenyl)-4-morpholin-4-yl-1,5-dihydropyrrol-2-one] | 33 | 1.46 |  |  |  | responders at 300 mg/kg (s.c. pentetrazole; dose 300 mg/kg): 100% |
| COc1cc(N2CC(N3CCOCC3)=CC2=O)cc(OC)c1OC [Compound 11, 4-morpholin-4-yl-1-(3,4,5-trimethoxyphenyl)-1,5-dihydropyrrol-2-one] |  |  | 0 | 179 to 182 |  | responders at 300 mg/kg (s.c. pentetrazole; dose 300 mg/kg): 66% |
| CCCC(CCC)C(=O)O [Valproate, reference compound] | 0 |  |  |  | 30 |  |
| CC1CCCN(C2=CC(=O)N(c3ccc(Cl)cc3)C2)C1 (stereo not drawn) [Compound 19, 1-(4-chlorophenyl)-4-(3-methylpiperidin-1-yl)-1,5-dihydropyrrol-2-one] |  | 3.58 | 0 | 188 to 189 | 40 |  |
| O=C1C=C(N2CCOCC2)CN1c1ccc(Br)cc1 [Compound 5, 1-(4-bromophenyl)-4-morpholin-4-yl-1,5-dihydropyrrol-2-one] | 33 | 2.16 |  | 230 to 233 | 100 |  |
| O=C1C=C(N2CCCCC2)CN1c1ccc(Cl)cc1 [Compound 14, 1-(4-chlorophenyl)-4-piperidin-1-yl-1,5-dihydropyrrol-2-one] | 100 | 3.06 |  |  | 100 |  |
| O=C1C=C(N2CCOCC2)CN1c1ccc(C(F)(F)F)cc1 [Compound 8, 4-morpholin-4-yl-1-(4-trifluoromethylphenyl)-1,5-dihydropyrrol-2-one] | 66 |  |  | 205 to 207 | 100 |  |
| CC1CCCCN1C1=CC(=O)N(c2ccc(Cl)cc2)C1 (stereo not drawn) [Compound 20, 1-(4-chlorophenyl)-4-(2-methylpiperidin-1-yl)-1,5-dihydropyrrol-2-one] |  |  | 66 | 181 to 185 | 40 |  |
| O=C1C=C(N2CCCCC2)CN1c1ccc(F)cc1 [Compound 13, 1-(4-fluorophenyl)-4-piperidin-1-yl-1,5-dihydropyrrol-2-one] |  | 2.35 | 0 | 214 to 216 |  | responders at 300 mg/kg (s.c. pentetrazole; dose 300 mg/kg): 0% |
| O=C1C=C(N2CCOCC2)CN1c1ccccc1Cl [Compound 1, 1-(2-chlorophenyl)-4-morpholin-4-yl-1,5-dihydropyrrol-2-one] | 0 |  |  | 154 to 156 | 0 | dose from which an anxiolytic action was detected / equally effective dose (Vogel Conflict Test): 3 mg/kg |
| CC1CCN(C2=CC(=O)N(c3ccc(Cl)cc3)C2)CC1 [Compound 18, 1-(4-chlorophenyl)-4-(4-methylpiperidin-1-yl)-1,5-dihydropyrrol-2-one] | 66 |  |  | 194 to 196 | 66 |  |
| CCN(CC)C1=CC(=O)N(c2ccc(Cl)cc2)C1 [Compound 23, 1-(4-chlorophenyl)-4-(diethylamino)-1,5-dihydropyrrol-2-one] |  |  | 50 | 165 to 168 |  | responders at 300 mg/kg (s.c. pentetrazole; dose 300 mg/kg): 66% |
| CN1CCN=C(c2ccccc2)c2cc(Cl)ccc21 [Medazepam, medazepam] |  |  |  |  |  | anxiolytic action (in words) (Vogel Conflict Test; dose range from 0.3 to 3 mg/kg p.o.): not possible to detect; Changed number of impulses to the control in % (Vogel Conflict Test; 0.3 mg/kg p.o.): 100%; Changed number of impulses to the control in % (Vogel Conflict Test; 1.0 mg/kg p.o.): 131%; Changed number of impulses to the control in % (Vogel Conflict Test; 3 mg/kg p.o.): 78% |
| Cc1ccc(N2CC(N3CCCCC3)=CC2=O)cc1 [Compound 15, 1-(4-methylphenyl)-4-piperidin-1-yl-1,5-dihydropyrrol-2-one] | 100 | 2.62 |  | 174 to 177 | 100 |  |
| O=C1C=C(N2CCCCC2)CN1c1ccc(F)c(Cl)c1 [Compound 16, 1-(3-chloro-4-fluorophenyl)-4-piperidin-1-yl-1,5-dihydropyrrol-2-one] |  |  | 100 | 195 to 196 |  | responders at 300 mg/kg (s.c. pentetrazole; dose 300 mg/kg): 0% |
| O=C1C=C(N2CCCC2)CN1c1ccc(Cl)cc1 [Compound 17, 1-(4-chlorophenyl)-4-pyrrolidin-1-yl-1,5-dihydropyrrol-2-one] |  | 2.6 | 66 | 223 to 227 |  | responders at 300 mg/kg (s.c. pentetrazole; dose 300 mg/kg): 0% |
| O=C1C=C(N2CCCCCC2)CN1c1ccc(Cl)cc1 [Compound 22, 1-(4-chlorophenyl)-4-azepam-1-yl-1,5-dihydropyrrol-2-one] |  |  |  |  |  | Action, % of the protected animals (maximal electroshock; dose 300 mg/kg): 100%; Action, % of the protected animals (s.c. pentetrazole; dose 300 mg/kg): 100%; log P (octanol/water partition coefficient) [1]: 3.40 |
| NC(=O)N1c2ccccc2C=Cc2ccccc21 [Carbamazepin, reference compound] |  |  |  |  |  | Action, % of the protected animals (maximal electroshock; dose 100 mg/kg): 100%; Action, % of the protected animals (s.c. pentetrazole; dose 100 mg/kg): 0% |
| CN1CCN(C2=CC(=O)N(c3ccc(Cl)cc3)C2)CC1 [Compound 21, 1-(4-chlorophenyl)-4-(4-methylpiperazin-1-yl)-1,5-dihydropyrrol-2-one] | 66 |  |  | 194 to 197 | 100 |  |
| O=C1CN=C(c2ccccc2Cl)c2cc([N+](=O)[O-])ccc2N1 [Clonazepam, clonazepam] |  |  |  |  |  | Changed number of impulses to the control in % (Vogel Conflict Test; 0.1 mg/kg p.o.): 122%; Changed number of impulses to the control in % (Vogel Conflict Test; 0.3 mg/kg p.o.): 128%; Changed number of impulses to the control in % (Vogel Conflict Test; 1.0 mg/kg p.o.): 173%; dose from which an anxiolytic action was detected / equally effective dose (Vogel Conflict Test): 1 mg/kg |
| Cc1cccc(N2CC(N3CCCCC3)=CC2=O)c1 [Compound 12, 1-(3-methylphenyl)-4-piperidin-1-yl-1,5-dihydropyrrol-2-one] |  | 2.66 | 0 | 117 to 123 |  | responders at 300 mg/kg (s.c. pentetrazole; dose 300 mg/kg): 0% |
| O=C1C=C(N2CCOCC2)CN1c1ccc(F)c(Cl)c1 [Compound 10, 1-(3-chloro-4-fluorophenyl)-4-morpholin-4-yl-1,5-dihydropyrrol-2-one] | 100 | 2.19 |  | 162 to 166 | 100 |  |
| COCCN(CCOC)C1=CC(=O)N(c2ccc(Cl)cc2)C1 [Compound 24, 1-(4-chlorophenyl)-4-(bis(methoxyethyl)amino)-1,5-dihydropyrrol-2-one] |  |  | 33 | 189 to 195 |  | responders at 300 mg/kg (s.c. pentetrazole; dose 300 mg/kg): 66% |
| Cc1ccc(N2CC(N3CCOCC3)=CC2=O)cc1 [Compound 6, 1-(4-methylphenyl)-4-morpholin-4-yl-1,5-dihydropyrrol-2-one] |  | 1.42 | 100 |  | 100 |  |
| O=C1C=C(N2CCOCC2)CN1c1ccccc1 [Compound 25, 4-morpholin-4-yl-1-phenyl-1,5-dihydropyrrol-2-one] | 40 |  |  | 161 to 164 | 66 |  |
| CN1C(=O)CN=C(c2ccccc2)c2cc(Cl)ccc21 [Diazepam, diazepam] |  |  |  |  |  | Changed number of impulses to the control in % (Vogel Conflict Test; 0.1 mg/kg p.o.): 94%; Changed number of impulses to the control in % (Vogel Conflict Test; 0.3 mg/kg p.o.): 114%; Changed number of impulses to the control in % (Vogel Conflict Test; 1.0 mg/kg p.o.): 148%; Changed number of impulses to the control in % (Vogel Conflict Test; 3 mg/kg p.o.): 167% |
| O=C1C=C(N2CCOCC2)CN1c1ccc(F)cc1 [Compound 3, 1-(4-fluorophenyl)-4-morpholin-4-yl-1,5-dihydropyrrol-2-one] | 50 |  |  | 226 to 229 | 33 |  |
